Laboratory results taken from article PMC10947113, “A Bivalent Activatable Fluorescent Probe for Screening and Intravital Imaging of Chemotherapy‐Induced Cancer Cell Death” (Angewandte Chemie (Weinheim an Der Bergstrasse, Germany), 2021).
Starred links: 1 amine or outer side, 2 acyl side, 3 side chain; linkers in the order of their positions; H or OH if unused. Non-standard residues stand in square brackets, D forms with d. Residues, ends and D or L forms follow the SMILES beside them. X1 = CC1=CC(C)=[N+]2C1=C(c1cccc(-c3[nH]c4ccccc4c3C[C@H](N[*:1])C(=O)[*:2])c1)c1ccc(-c3ccc(C)s3)n1[B-]2(F)F

Key:
[1] = system: MCF7 cells; test: Cell viability, TACS MTT cell proliferation assay, MCF7; assay type: cell-based, human; details: different working concentrations, 3 h, means ± SD (n=5), ns for p>0.05
Procedure: (§1) Figure S15. Cell viability experiments (TACS® MTT cell proliferation assay) after incubation of Apotracker Red in breast cancer cell lines (a: MCF7 cells, b: MDA-MB-231 cells) at different concentrations for 3 h. Data presented as means ± SD (n=5). P values obtained from one- way ANOVA using multiple comparisons (ns for p>0.05).
(§2) Figure S16. Quantification of E GFP+ macrophages in tumours from untreated and cisplatin-treated mice by time- lapse imaging on a spinning disk confocal microscope (λexc: 488 nm). Data presented as means ± SD of 8 random areas in 2- 3 mice per group (untreated or treated with 10 μg g-1 cisplatin for 72 h). […]

[2] = Stability analysis in mouse serum; assay type: in vitro ADME; details: 24 h, 37 °C, 500 rpm shaker, 50 μM (method) or 25 μM (Figure S14), CH3CN protein precipitation, HPLC traces and fluorescence emission (exc 520 nm)
Procedure: Figure S14. Stability analysis of Apotracker Red in mouse serum. HPLC traces of Apotracker Red (25 μM) after incubation in PBS buffer or mouse serum for 24 h at 37 °C . […]
fluorescence emission of Apotracker Red before and after incubation in mouse serum and […]
(1 picture or pasted object on this page, not shown here) […]
r.t., followed by separation from erythrocytes by centrifugation for 10 min, 2, 000 g at r.t. Sera were transferred into new tubes and stored at - 20°C until use. 50 μM Apotracker Red in PBS or in serum were incubated fo r 24 h at 37 °C on a vertical shaker at 500 rpm . A s control s, seru m without peptide and freshly aliquoted 50 μM Apotracker Red in mouse serum were used.
Fluorescence spectra were recorded after excitation at 520 nm. For HPLC measurements, proteins were precipitated by addition of CH3CN and centrifugation at 300 g fo r 5 m in a t r.t. and the resulting supernatants were injected.
Lipid layer assays . […] The limit of detection (LoD) of Apotracker Red for PtdSer was determined by fluorescence titration of serial dilutions of Pt dSer layers after incubation with Apotracker Red (1 μM, PBS) at 25 °C for 40 min. The LoD was calculated using the equation LoD = (3 × σ)/k, where σ is the standard deviation of blank solutions and k is the slope of the linear regression fit. Data was recorded on Cytation 3 (exc: 530 nm). […]

[3] = system: MDA-MB-231 cells; test: Cell viability, TACS MTT cell proliferation assay, MDA-MB-231; assay type: cell-based, human; details: different working concentrations, 3 h, means ± SD (n=5), ns for p>0.05
Procedure: as §1, §2

In the case of `CC1=CC(C)=[N+]2C1=C(c1cccc(-c3[nH]c4ccccc4c3C[C@@H]3NC(=O)[C@H](Cc4ccccc4)NC(=O)[C@H](Cc4c[nH]c5ccccc45)NC(=O)[C@H](CCCCN)NC(=O)[C@H](CCCCN)NC(=O)[C@H](CCCNC(=N)N)NC(=O)CNC3=O)c1)c1ccc(-c3ccc(C)s3)n1[B-]2(F)F` [Apotracker Red] (cyclo(F[X1]GRKKW)), the “cell toxicity (MTT cell viability), MCF7” value [1] was “did not cause cell toxicity”, the “proteolytic stability in mouse serum” value [2] was “good proteolytic stability for up to 24 h” and the “cell toxicity (MTT cell viability), MDA-MB-231” value [3] was “did not cause cell toxicity”.
